The values below are quoted from earlier work in patent US20110171184A1, “Method for Introducing a Pna Molecule Conjugated to a Positively Charged Peptide into the Cytosol and/or the Nucleus by Photochemical Internalisation (Pci)” (PCI Biotech AS, priority 2004, published 2011).

The series relates to cells. The following applies: 10 μM, after 24 hours, no PCI.

Ends that are not written are not given here.

Consider “scrambled NLS sequence (SEQ ID NO:4 KKVKPKR) conjugated to PNA: PNA conjugated to scrambled NLS sequence KKVKPKR (Cutrona et al.) (also: conjugated to PNA)”, for which the “presence of PNA in the nucleus” value is listed as “only minimal amounts of PNA in the nucleus”.
